System: TG, non-HDL-C, LDL-C, HDL-C, apo B, hsCRP
Test: REDUCE-IT trial: fasting lipid, lipoprotein and inflammatory marker data over time
Assay type: in vivo, human
Procedure: Fasting Lipid Profile: The fasting lipid panel included: TG, TC, LDL-C, HDL-C, non-HDL-C, and VLDL-C. At all visits, LDL-C was calculated using the Friedewald equation. At Visit 1 and Visit 1.1 direct LDL-C were used if at the same visit TG>400 mg/dL (4.52 mmol/L). These LDL-C values were used for the evaluation of the LDL-C inclusion criterion (LDL-C qualifying measurements for randomization) and for the assessment of changes in the statin therapy when LDL-C was not at goal. […] In addition, irrespective of the TG levels, at Visit 2 (0 Months of Follow-up, baseline) and at Visit 4 (12 Months of Follow-up), LDL-C were measured by preparative ultracentrifugation. These preparative ultracentrifugation LDL-C measurements were used in the statistical analysis including the calculation of the percent change from baseline (1 year versus baseline). Hopkins LDL-C was calculated for each visit.
Biomarkers Assays: The biomarker assays included: hsCRP, Apo B and hsTnT.
The fasting lipid panel was tested at Screening (Visit 1 or Visit 1.1), Randomization visit (Visit 2; Day 0), Visit 3 (Day 120; ˜4 Months) and all other follow-up visits including the last visit. For change from baseline to 1 year preparative ultracentrifugation measurements for LDL-C were analyzed, unless this value was missing. If the LDL-C preparative ultracentrifugation values were missing, then another LDL-C value was used, with prioritization of values obtained from LDL-C Direct measurements, followed by LDL-C derived by the Friedewald calculation (only for subjects with TG<400 mg/dL), and finally LDL-C derived using the calculation published by Hopkins University investigators (Martin S S, Blaha M J, Elshazly M B, et al. Comparison of a novel method vs the Friedewald equation for estimating low-density lipoprotein cholesterol levels from the standard lipid profile. JAMA. 2013; 310:2061-8.). In addition, change from baseline to day 120 in LDL-C utilizing Friedewald's and Hopkins methods was analyzed, using the arithmetic mean of LDL-C obtained at Visit 2 (Day 0) and the preceding Visit 1 (or Visit 1.1). If one of these values was missing, the single available LDL-C value was used. LDL-C according to Hopkins was calculated at each visit.
The randomization visit was considered Baseline. If a baseline value was not available from the randomization visit, then the latest screening value was used. For measurements of lipids, lipoproteins and inflammatory markers, the change and the percent change were summarized at each visit. Since these biomarkers are typically not normally distributed, the Wilcoxon rank-sum test was used for treatment comparisons of the percent change from baseline, and medians and quartiles were provided for each treatment group. The medians of the differences between the treatment groups and 95% CIs were estimated with the Hodges-Lehmann method. In addition, shift-tables were generated as appropriate.

SMILES: CC/C=C\C/C=C\C/C=C\C/C=C\C/C=C\CCCC(=O)OCC [icosapent ethyl, eicosapentaenoic acid ethyl ester]
- Apo B Median Observed Value (Year 2): 80.0 mg/dL
- HDL-C Median % Change from Baseline (Year 2): 0.0%
- HDL-C Median Absolute Change from Baseline (Year 2): 0.0 mg/dL
- HDL-C Median Observed Value (Year 2): 40.0 mg/dL
- LDL-C Hopkins Median % Change from Baseline (Year 2): −0.2%
- LDL-C Hopkins Median Absolute Change from Baseline (Year 2): -0.1 mg/dL
- LDL-C Hopkins Median Observed Value (Year 2): 85.5 mg/dL
- Log hsCRP Median % Change from Baseline (Year 2): −21.8%
- Log hsCRP Median Absolute Change from Baseline (Year 2): −0.1 mg/L
- Log hsCRP Median Observed Value (Year 2): 0.6 mg/L
- Non-HDL-C Median % Change from Baseline (Year 2): −3.1%
- Non-HDL-C Median Absolute Change from Baseline (Year 2): -3.5 mg/dL
- Non-HDL-C Median Observed Value (Year 2): 113.0 mg/dL
- Triglycerides Median % Change from Baseline (Year 2): −18.9%
- Triglycerides Median Absolute Change from Baseline (Year 2): -38.5 mg/dL
- Triglycerides Median Observed Value (Year 2): 173.0 mg/dL
- hsCRP Median % Change from Baseline (Year 2): −13.9%
- hsCRP Median Absolute Change from Baseline (Year 2): -0.2 mg/L
- hsCRP Median Observed Value (Year 2): 1.8 mg/L
- Apo B Between Group Difference Median % Change from Baseline (Year 2, vs placebo): −9.7%
- Apo B Between Group Difference Median Absolute Change from Baseline (Year 2, vs placebo): -8.0 mg/dL
- HDL-C Between Group Difference Median % Change from Baseline (Year 2, vs placebo): −4.6%
- HDL-C Between Group Difference Median Absolute Change from Baseline (Year 2, vs placebo): -2.0 mg/dL
- LDL-C Hopkins Between Group Difference Median % Change from Baseline (Year 2, vs placebo): −11.1%
- LDL-C Hopkins Between Group Difference Median Absolute Change from Baseline (Year 2, vs placebo): -9.4 mg/dL
- Log hsCRP Between Group Difference Median % Change from Baseline (Year 2, vs placebo): −22.5%
- Log hsCRP Between Group Difference Median Absolute Change from Baseline (Year 2, vs placebo): −0.4 mg/L
- Non-HDL-C Between Group Difference Median % Change from Baseline (Year 2, vs placebo): −12.5%
- Non-HDL-C Between Group Difference Median Absolute Change from Baseline (Year 2, vs placebo): -14.5 mg/dL
- Triglycerides Between Group Difference Median % Change from Baseline (Year 2, vs placebo): −19.7%
- Triglycerides Between Group Difference Median Absolute Change from Baseline (Year 2, vs placebo): -43.8 mg/dL
- hsCRP Between Group Difference Median % Change from Baseline (Year 2, vs placebo): −39.9%
- hsCRP Between Group Difference Median Absolute Change from Baseline (Year 2, vs placebo): -0.9 mg/L
- HDL-C Median % Change from Baseline (Year 3): 0.0%
- HDL-C Median Absolute Change from Baseline (Year 3): 0.0 mg/dL
- HDL-C Median Observed Value (Year 3): 40.0 mg/dL
- LDL-C Hopkins Median % Change from Baseline (Year 3): −1.2%
- LDL-C Hopkins Median Absolute Change from Baseline (Year 3): -1.0 mg/dL
- LDL-C Hopkins Median Observed Value (Year 3): 84.6 mg/dL
- Non-HDL-C Median % Change from Baseline (Year 3): −4.2%
- Non-HDL-C Median Absolute Change from Baseline (Year 3): -4.8 mg/dL
- Non-HDL-C Median Observed Value (Year 3): 112.0 mg/dL
- Triglycerides Median % Change from Baseline (Year 3): −21.7%
- Triglycerides Median Absolute Change from Baseline (Year 3): -44.0 mg/dL
- Triglycerides Median Observed Value (Year 3): 167.0 mg/dL
- HDL-C Between Group Difference Median % Change from Baseline (Year 3, vs placebo): −3.8%
- HDL-C Between Group Difference Median Absolute Change from Baseline (Year 3, vs placebo): -1.5 mg/dL
- LDL-C Hopkins Between Group Difference Median % Change from Baseline (Year 3, vs placebo): −10.4%
- LDL-C Hopkins Between Group Difference Median Absolute Change from Baseline (Year 3, vs placebo): -8.7 mg/dL
- Non-HDL-C Between Group Difference Median % Change from Baseline (Year 3, vs placebo): −12.4%
- Non-HDL-C Between Group Difference Median Absolute Change from Baseline (Year 3, vs placebo): -14.5 mg/dL
- Triglycerides Between Group Difference Median % Change from Baseline (Year 3, vs placebo): −20.3%
- Triglycerides Between Group Difference Median Absolute Change from Baseline (Year 3, vs placebo): -45.5 mg/dL
- HDL-C Median % Change from Baseline (Year 4): 1.0%
- HDL-C Median Absolute Change from Baseline (Year 4): 0.5 mg/dL
- HDL-C Median Observed Value (Year 4): 40.5 mg/dL
- LDL-C Hopkins Median % Change from Baseline (Year 4): −0.6%
- LDL-C Hopkins Median Absolute Change from Baseline (Year 4): -0.5 mg/dL
- LDL-C Hopkins Median Observed Value (Year 4): 83.6 mg/dL
- Non-HDL-C Median % Change from Baseline (Year 4): −4.2%
- Non-HDL-C Median Absolute Change from Baseline (Year 4): -5.0 mg/dL
- Non-HDL-C Median Observed Value (Year 4): 110.5 mg/dL
- Triglycerides Median % Change from Baseline (Year 4): −21.7%
- Triglycerides Median Absolute Change from Baseline (Year 4): -42.5 mg/dL
- Triglycerides Median Observed Value (Year 4): 163.0 mg/dL
- HDL-C Between Group Difference Median % Change from Baseline (Year 4, vs placebo): −3.9%
- HDL-C Between Group Difference Median Absolute Change from Baseline (Year 4, vs placebo): -1.5 mg/dL
- LDL-C Hopkins Between Group Difference Median % Change from Baseline (Year 4, vs placebo): −10.6%
- LDL-C Hopkins Between Group Difference Median Absolute Change from Baseline (Year 4, vs placebo): -8.9 mg/dL
- Non-HDL-C Between Group Difference Median % Change from Baseline (Year 4, vs placebo): −12.0%
- Non-HDL-C Between Group Difference Median Absolute Change from Baseline (Year 4, vs placebo): -14.0 mg/dL
- Triglycerides Between Group Difference Median % Change from Baseline (Year 4, vs placebo): −17.4%
- Triglycerides Between Group Difference Median Absolute Change from Baseline (Year 4, vs placebo): -38.0 mg/dL
- HDL-C Median % Change from Baseline (Year 5): 0.0%
- HDL-C Median Absolute Change from Baseline (Year 5): 0.0 mg/dL
- HDL-C Median Observed Value (Year 5): 41.0 mg/dL
- LDL-C Hopkins Median % Change from Baseline (Year 5): −0.7%
- LDL-C Hopkins Median Absolute Change from Baseline (Year 5): -0.8 mg/dL
- LDL-C Hopkins Median Observed Value (Year 5): 82.2 mg/dL
- Non-HDL-C Median % Change from Baseline (Year 5): −4.4%
- Non-HDL-C Median Absolute Change from Baseline (Year 5): -5.0 mg/dL
- Non-HDL-C Median Observed Value (Year 5): 109.0 mg/dL
- Triglycerides Median % Change from Baseline (Year 5): −20.0%
- Triglycerides Median Absolute Change from Baseline (Year 5): -38.0 mg/dL
- Triglycerides Median Observed Value (Year 5): 158.0 mg/dL
- HDL-C Between Group Difference Median % Change from Baseline (Year 5, vs placebo): −3.0%
- HDL-C Between Group Difference Median Absolute Change from Baseline (Year 5, vs placebo): -1.5 mg/dL
- LDL-C Hopkins Between Group Difference Median % Change from Baseline (Year 5, vs placebo): −8.0%
- LDL-C Hopkins Between Group Difference Median Absolute Change from Baseline (Year 5, vs placebo): -6.6 mg/dL
- Non-HDL-C Between Group Difference Median % Change from Baseline (Year 5, vs placebo): −9.9%
- Non-HDL-C Between Group Difference Median Absolute Change from Baseline (Year 5, vs placebo): -11.0 mg/dL
- Triglycerides Between Group Difference Median % Change from Baseline (Year 5, vs placebo): −16.7%
- Triglycerides Between Group Difference Median Absolute Change from Baseline (Year 5, vs placebo): -33.5 mg/dL
- reduction in hsCRP (in vivo): 40%

Source: patent US20200261391A1, “METHODS OF REDUCING THE RISK OF A CARDIOVASCULAR EVENT IN A STATIN-TREATED SUBJECT BY INCREASING SERUM AND PLASMA EPA AND DPA LEVELS” (Amarin Pharmaceuticals Ireland Limited, priority 2019, published 2020)
